This note sets out measurements from ChEMBL document CHEMBL1629594, “Identification of a novel trimethoprim resistance gene, dfrK, in a methicillin-resistant Staphylococcus aureus ST398 strain and its physical linkage to the tetracycline resistance gene tet(L)” (2009).

In brackets after ≈: the same amount, converted by molar mass. Where only a bound is given, the exact number is not on record here.

For the first assay, the system named is Escherichia coli. The experiment in a line: Antibacterial activity against Escherichia coli JM109 expressing Bgl2.
Regarding `COc1cc(Cc2cnc(N)nc2N)cc(OC)c1OC` [TRIMETHOPRIM], the minimal inhibitory concentration (MIC) – broadly, the least concentration at which growth counts as inhibited – is not below 512 µg/mL.

A further assay relates to Staphylococcus aureus. In words: Antibacterial activity against methicillin-resistant Staphylococcus aureus ST398. The class given is functional.
In turn, `CN(C)[C@@H]1C(O)=C(C(N)=O)C(=O)[C@@]2(O)C(O)=C3C(=O)c4c(O)cccc4[C@@](C)(O)[C@H]3C[C@@H]12` [TETRACYCLINE] came in with a minimal inhibitory concentration (MIC) of 64 µg/mL (≈ 144 µM).

The molecule `Cc1onc(-c2ccccc2)c1C(=O)N[C@@H]1C(=O)N2[C@@H]1SC(C)(C)[C@@H]2C(=O)O` [OXACILLIN] yielded a minimal inhibitory concentration (MIC) of 8 µg/mL (≈ 19.9 µM). For the molecule `COc1cc(Cc2cnc(N)nc2N)cc(OC)c1OC` [TRIMETHOPRIM], the MIC is more than 256 µg/mL. As to `CC1(C)S[C@@H]2[C@H](NC(=O)[C@H](N)c3ccccc3)C(=O)N2[C@H]1C(=O)O` [AMPICILLIN], it took 8 µg/mL (≈ 22.9 µM) to inhibit growth (MIC).

`CC1(C)S[C@@H]2[C@H](NC(=O)Cc3ccccc3)C(=O)N2[C@H]1C(=O)O` [PENICILLIN G] yielded an MIC of 8 µg/mL (≈ 23.9 µM).
